Measurements as given in US20230172984A1, “CLEARANCE OF SENESCENT CELLS BY ACTIVATION OF iNKT CELLS” (THE REGENTS OF THE UNIVERSITY OF CALIFORNIA, priority 2020, published 2023).

How the values were obtained:
[1] = test system: Cdkn2a^Ink4a, Ccl2, Serpine1 mRNA; assay: Bleomycin-induced lung injury model, qRT-PCR of senescence and SASP markers in CD45-depleted lung cells; format: in vivo, mouse; details: bleomycin-injured mice, GalCer day 10, harvest day 14; FIG. 4B
Description: MATERIALS AND METHODS. Mouse husbandry. All procedures involving mice were performed according to the IACUC standards following ethics approval by the animal committee at the University of California, San Francisco. Male C57BL6/J on chow or HFD fed mice. HFD mice were fed a high-fat diet (60% kcal from fat) from 6 weeks until 22 weeks of age. All experiments on HFD mice were performed at 22-24 weeks total age (16-18 weeks on HFD). Age-matched male C57BL6/J mice on standard rodent chow diet were used as controls. For the lung injury model, 10-week-old male C57BL/6J mice were used. The animals were divided into three groups: the control group, the injured group, and the α-GalCer treated group. The animals in the control group received vehicle only (i.p.) on day 10. The injured group animals received bleomycin (3 U/kg) via the intratracheal route at the start of the experiment (day 0). The animals in the α-GalCer treated groups received bleomycin (3 U/kg) on day 0, and i.p. injection of α-GalCer (2 μg/mouse) on day 10. […] RNA extraction and Quantitative reverse transcriptase PCR.RNA was extracted with RNA extraction reagent using the commercial total RNA micro-prep kit according to the product instructions. Total RNA was quantified by nanovolume photospectrometer and fluorometer. […] Quantification was performed using with the delta-delta CT method, using Cyclophilin A (Ppia) as a housekeeping gene.

[2] = Bleomycin lung injury, hydroxyproline assay (whole lung collagen content); format: in vivo, mouse; details: bleomycin 3 U/kg, α-GalCer or vehicle at day 10; FIG. 4D
Description: MATERIALS AND METHODS. Mouse husbandry. All procedures involving mice were performed according to the IACUC standards following ethics approval by the animal committee at the University of California, San Francisco. Male C57BL6/J on chow or HFD fed mice. HFD mice were fed a high-fat diet (60% kcal from fat) from 6 weeks until 22 weeks of age. All experiments on HFD mice were performed at 22-24 weeks total age (16-18 weeks on HFD). Age-matched male C57BL6/J mice on standard rodent chow diet were used as controls. For the lung injury model, 10-week-old male C57BL/6J mice were used. The animals were divided into three groups: the control group, the injured group, and the α-GalCer treated group. The animals in the control group received vehicle only (i.p.) on day 10. The injured group animals received bleomycin (3 U/kg) via the intratracheal route at the start of the experiment (day 0). The animals in the α-GalCer treated groups received bleomycin (3 U/kg) on day 0, and i.p. injection of α-GalCer (2 μg/mouse) on day 10. The animals in all the groups were sacrificed on day 14, and lungs were harvested for isolation of primary pulmonary Alveolar Type II cells (ATII) on the same day. For the hydroxyproline assay, mice were euthanized 21 days after injury. Bleomycin lung injury. […] Absorbance was measured at 550 nm and the values were computed from the standard curve.

CCCCCCCCCCCCCCCCCCCCCCCCCC(=O)N[C@@H](CO[C@H]1O[C@H](CO)[C@H](O)[C@H](O)[C@H]1O)[C@H](O)[C@H](O)CCCCCCCCCCCCCC [GalCer, alpha-Galactosylceramide]
mRNA levels of senescence (Cdkn2a^Ink4a) and SASP (Ccl2, Serpine1) markers in CD45^− lung cells [1]: reduced mRNA levels of these marker genes | lung hydroxyproline content (fibrosis) [2]: significantly reduced lung hydroxyproline content
